Assay results: patent publication US11602514B2, “Medicament having anti-inflammatory bowel disease function, and preparation method therefor and application thereof” (SUZHOU PHARMAVAN CO., LTD, priority 2018, dated 2023)
Entries after “also recorded” stand apart in the source; their conditions may differ.

What was measured:
[1] = system: mouse macrophages RAW264.7; assay: effect on proliferation activity of mouse macrophages RAW264.7; format: cell-based; details: n=3, FIG. 4
[2] = system: IL-6 secreted by mouse macrophages RAW264.7 induced by LPS; assay: IL-6 secreted by LPS-induced RAW264.7 macrophages (ELISA); format: cell-based; details: LPS 100 ng/mL, 24 h; FIG. 5
Experimental: (§1) Effects of myricanol derivatives on the expression of inflammatory factors such as IL-6, TNF-α, PEG2 secreted by a mouse macrophage cell strain RAW 264.7 induced by bacterial lipopolysaccharide (hereinafter referred to as LPS) stimulus: A pre-prepared cell suspension was inoculated in a 96-well plate at 15000 cells/well and 100 μl/well and cultured overnight in an incubator with 5% CO2 at 37° C. At 80% cell confluence, the original culture medium was discarded, and each well was added with 100 μl of prepared drug solution to be tested with a different concentration, cultured for 1 h, and then added with a LPS solution, where the final concentration of LPS in the culture system was 100 ng/mL. Each concentration was set with 3 parallel wells, and a cell control group (no drug and no solvent) and a blank medium control group (no cells, a well for zero adjustment) were set. They were cultured for another 24 h. Cell culture supernatants were aspirated, and an R&D ELISA detection kit (M6000B; MTA00B; VAL601) was used for detecting the expression of the inflammatory factors such as IL-6, TNF-α, and PEG2 in each group. Cell proteins were collected, and a […] method was used for detecting COX-2 protein expression in each group.

[3] = system: COX2 protein expressed by mouse macrophages RAW264.7; assay: COX2 protein expression in LPS-induced RAW264.7 macrophages (blot); format: cell-based; details: FIG. 8
Experimental: as §1

[4] = system: PGE2 secreted by mouse macrophages RAW264.7 induced by LPS; assay: PGE2 secreted by LPS-induced RAW264.7 macrophages (ELISA); format: cell-based; details: for inhibition of PGE2 secreted by RAW264.7 induced by LPS: LPS 100 ng/mL, 24 h, FIGS. 7 and 9
Experimental: as §1

[5] = system: SD rats; assay: acute toxicity, single oral dose; format: in vivo; details: single intragastric administration, 14 days observation
From the text: Trial method: 30 SD rats, half male and half female, were used. The average weight was 160-200 g for female rats and 180-220 g for male rats when grouped. An individual weight should be within ±20% of the average weight. Before the test, animals needed to accommodate to the environment for at least 5 days, and healthy rats (female rats should be not pregnant) were selected as test animals. Matter detected during the accommodation period mainly was: whether the rats were consistent with quality indexes required in the order; detection of general conditions; and whether the weight was within the weight range required by the test. Unqualified abnormal animals were excluded from the test. A single dosage was orally administered to rats at a low, medium, or high dose. […] A control group was set with the oral administration of the same volume of solvent.
The rats were observed about 0-2 h and 4-6 h after each administration. If a toxicity symptom occurs, the rats may be observed more times. (2) Gross anatomical observation: on the 14th day of the test, all surviving rats in each group were dissected and observed, and for administration sites and gross dissection, abnormal organs and tissues which were observed and found to be potentially related to test samples were photographed and recorded. (3) Disposal of dying animals: status of rats and observation time were recorded, and their weights were measured. (4) Disposal of dead animals: the time of death or when a rat was found dead were recorded. The rat was measured for weight before quickly dissected for gross observation and speculated for a cause of death.

Compound: COc1c2cc(c(OCc3ccccc3)c1OC)CCCCC(O)CCc1ccc(O)c-2c1 (centres unmarked) [compound C, 5-benzyloxy myricanol]
- effect on proliferation activity of mouse macrophages RAW264.7 ([1]; 30 μM): no significant effects

Compound: 5-n-propoxy myricanol [compound B]
- inhibition of LPS-induced IL-6 secretion of RAW264.7 cells [2]: very strong effects of inhibiting
- inhibition of protein expression of IBD-related COX2 [3]: can inhibit
- effect on proliferation activity of mouse macrophages RAW264.7 ([1]; 30 μM): no significant effects
- inhibition of PGE2 secreted by RAW264.7 induced by LPS [4]: significant effect of inhibiting PGE2; also recorded: strong ability to inhibit

Compound: COc1c2cc(c(OC(C)=O)c1OC)CCCCC(O)CCc1ccc(OC(C)=O)c-2c1 (centres unmarked) [compound A, 5,17-diacetoxy myricanol]
- inhibition of LPS-induced IL-6 secretion of RAW264.7 cells [2]: very strong effects of inhibiting
- inhibition of protein expression of IBD-related COX2 [3]: can inhibit
- effect on proliferation activity of mouse macrophages RAW264.7 ([1]; 40 μM): no significant effects
- Test Endpoint (toxic side effects) ([5]; 100 mg/kg): No obvious toxic
- Test Endpoint (toxic side effects) ([5]; 300 mg/kg): No obvious toxic
- Test Endpoint (toxic side effects) ([5]; 1000 mg/kg): No obvious toxic
- inhibition of PGE2 secreted by RAW264.7 induced by LPS [4]: significant effect of inhibiting PGE2; also recorded: strong ability to inhibit

Compound: C=CCOc1ccc2cc1-c1cc(c(OCC=C)c(OC)c1OC)CCCCC(=O)CC2 [compound F, 5,17-allyloxy myricanone]
- effect on proliferation activity of mouse macrophages RAW264.7 ([1]; 80 μM): no significant effects

Compound: COc1c2cc(c(OC(C)=O)c1OC)CCCCC(O)CCc1ccc(O)c-2c1 (centres unmarked) [compound G, 5-acetoxy myricanol]
- inhibition of LPS-induced IL-6 secretion of RAW264.7 cells [2]: very strong effects of inhibiting
- COX2 protein expression inhibition compared with myricanol [3]: better inhabitation effects than myricanol
- inhibition of protein expression of IBD-related COX2 [3]: can inhibit
- effect on proliferation activity of mouse macrophages RAW264.7 ([1]; 40 μM): no significant effects
- Test Endpoint (toxic side effects) ([5]; 100 mg/kg): No obvious toxic
- Test Endpoint (toxic side effects) ([5]; 300 mg/kg): No obvious toxic
- Test Endpoint (toxic side effects) ([5]; 1000 mg/kg): No obvious toxic
- inhibition of PGE2 secreted by RAW264.7 induced by LPS [4]: significant effect of inhibiting PGE2; also recorded: strong ability to inhibit

Compound: C=CCOc1c2cc(c(OC)c1OC)-c1cc(ccc1O)CCC(O)CCCC2 (centres unmarked) [compound E, 5-allyloxy myricanol]
- effect on proliferation activity of mouse macrophages RAW264.7 ([1]; 30 μM): no significant effects

Compound: C=CCOc1ccc2cc1-c1cc(c(OCC=C)c(OC)c1OC)CCCCC(O)CC2 (centres unmarked) [compound D, 5,17-diallyloxy myricanol]
- effect on proliferation activity of mouse macrophages RAW264.7 ([1]; 30 μM): no significant effects

Compound: COc1c2cc(c(O)c1OC)CCCC[C@@H](O)CCc1ccc(O)c-2c1 [myricanol, reference compound]
- inhibition of protein expression of IBD-related COX2 [3]: can inhibit
- inhibition of PGE2 secreted by RAW264.7 induced by LPS [4]: strong ability to inhibit
- PGE2 ([4]; LPS + 20 μM, LPS alone 1154.90 ± 84.20, control −407.37 ± 57.67): 904.98 ± 18.02 pg/mL
